Consider 20 compounds from ChEMBL document CHEMBL1135871, “Sordarin oxazepine derivatives as potent antifungal agents” (2002).

Common to all, as to type: functional
The test system of one assay is Cryptococcus neoformans. Kind of assay: Minimum inhibitory concentration required to inhibit 90-100% growth of Cryptococcus neoformans.
Another assay has as its system Candida albicans. Kind of assay: Minimum inhibitory concentration required to inhibit 90-100%growth of Candida albicans.
The test system of the next assay is Nakaseomyces glabratus. Put plainly: Minimum inhibitory concentration required to inhibit 90-100%growth of Candida glabrata.

A word on the MIC: it is the least concentration at which growth counts as inhibited. Read a high MIC as a less susceptible organism.

Values after ≈ are worked out from the molar mass of the structure shown.

Regarding `CC(C)C1=CC2CC3(C=O)[C@@H]4CC[C@@H](C)[C@H]4CC2(CO[C@@H]2O[C@H](C)CN(CCC4=CCCCC4)C[C@@H]2O)[C@]13C(=O)O`, the MIC in the assay on Cryptococcus neoformans is above 128 µg/mL; in the assay on Candida albicans, 2 µg/mL (≈ 3.51 µM); with Nakaseomyces glabratus, above 128 µg/mL.
With `C=C(Cl)CN1C[C@H](OCC23C[C@@H]4[C@H](C)CC[C@H]4C4(C=O)CC2C=C(C(C)C)[C@@]34C(=O)O)O[C@H](C)C1`, the MIC against Cryptococcus neoformans was 16 µg/mL (≈ 31.6 µM); with Candida albicans it was below 0.06 µg/mL; in the assay with Nakaseomyces glabratus it was 0.125 µg/mL (≈ 0.247 µM).
Regarding `CC(C)C1=CC2CC3(C=O)[C@@H]4CC[C@@H](C)[C@H]4CC2(CO[C@@H]2O[C@H](C)CN(CCC(F)(F)F)C[C@@H]2O)[C@]13C(=O)O`, the MIC against Cryptococcus neoformans is above 128 µg/mL; against Candida albicans, 1 µg/mL (≈ 1.79 µM); with Nakaseomyces glabratus, 32 µg/mL (≈ 57.4 µM).
Turning to `COc1ccc(CN2C[C@@H](C)O[C@@H](OCC34C[C@@H]5[C@H](C)CC[C@H]5C5(C=O)CC3C=C(C(C)C)[C@@]45C(=O)O)[C@@H](O)C2)cc1`, the MIC with Cryptococcus neoformans is above 128 µg/mL; in the assay on Candida albicans, below 0.06 µg/mL; in the assay with Nakaseomyces glabratus, 1 µg/mL (≈ 1.72 µM).
Take `CC(C)C1=CC2CC3(C=O)[C@@H]4CC[C@@H](C)[C@H]4CC2(CO[C@@H]2O[C@H](C)[C@@H](O)[C@@H](O)[C@@H]2O)[C@]13C(=O)O`: the MIC against Cryptococcus neoformans, in the assay with Candida albicans and against Nakaseomyces glabratus was above 128 µg/mL each time.
Consider `COc1ccc(N2C[C@@H](C)O[C@@H](OCC34C[C@@H]5[C@H](C)CC[C@H]5C5(C=O)CC3C=C(C(C)C)[C@@]45C(=O)O)[C@@H](O)C2)cc1`, for which the MIC in the assay on Cryptococcus neoformans was above 128 µg/mL; against Candida albicans it was 2 µg/mL (≈ 3.52 µM); in the assay with Nakaseomyces glabratus it was 64 µg/mL (≈ 113 µM).
`CC(C)C1=CC2CC3(C=O)[C@@H]4CC[C@@H](C)[C@H]4CC2(CO[C@@H]2O[C@H](C)CN(CCc4ncc[nH]4)C[C@@H]2O)[C@]13C(=O)O`: the MIC in the assay with Cryptococcus neoformans, against Candida albicans and in the assay with Nakaseomyces glabratus was above 128 µg/mL each time.
In the case of `Cc1coc(CN2C[C@@H](C)O[C@@H](OCC34C[C@@H]5[C@H](C)CC[C@H]5C5(C=O)CC3C=C(C(C)C)[C@@]45C(=O)O)[C@@H](O)C2)c1`, the values for the MIC against Cryptococcus neoformans, in the assay with Candida albicans and against Nakaseomyces glabratus were 32 µg/mL (≈ 57.6 µM), 2 µg/mL (≈ 3.6 µM) and above 128 µg/mL, respectively.
For `CC(C)C1=CC2CC3(C=O)[C@@H]4CC[C@@H](C)[C@H]4CC2(CO[C@@H]2O[C@H](C)CN(Cc4ccccc4Cl)C[C@@H]2O)[C@]13C(=O)O` the same measures were 128 µg/mL (≈ 218 µM), 2 µg/mL (≈ 3.41 µM) and above 128 µg/mL.
Regarding `CC(C)C1=CC2CC3(C=O)[C@@H]4CC[C@@H](C)[C@H]4CC2(CO[C@@H]2O[C@H](C)CN(Cc4cccs4)C[C@@H]2O)[C@]13C(=O)O`, the figures for the MIC with Cryptococcus neoformans, against Candida albicans and in the assay with Nakaseomyces glabratus were 32 µg/mL (≈ 57.4 µM), 2 µg/mL (≈ 3.59 µM) and 128 µg/mL (≈ 229 µM), respectively.
In the same order, the values of `C=C(Cl)CN1C[C@@H](C)O[C@@H](OCC23C[C@@H]4[C@H](C)CC[C@H]4C4(C=O)CC2C=C(C(C)C)[C@@]34C(=O)O)[C@@H](OC)C1` are above 128 µg/mL, 4 µg/mL (≈ 7.27 µM) and 64 µg/mL (≈ 116 µM).
In the same order, the values of `C=C(Cl)CN1C[C@@H](C)O[C@@H](OCC23C[C@@H]4[C@H](C)CC[C@H]4C4(C=O)CC2C=C(C(C)C)[C@@]34C(=O)O)[C@@H](OC(C)=O)C1` are above 128 µg/mL, 8 µg/mL (≈ 13.8 µM) and 16 µg/mL (≈ 27.7 µM).
On to `C=C(Cl)CN1C[C@@H](C)O[C@@H](OCC23C[C@@H]4[C@H](C)CC[C@H]4C4(C=O)CC2C=C(C(C)C)[C@@]34C(=O)O)[C@H](F)C1`, for which the MIC with Cryptococcus neoformans is 16 µg/mL (≈ 29.7 µM); in the assay with Candida albicans, below 0.06 µg/mL; in the assay on Nakaseomyces glabratus, 2 µg/mL (≈ 3.72 µM).
For `C=CCN1C[C@@H](C)O[C@@H](OCC23C[C@@H]4[C@H](C)CC[C@H]4C4(C=O)CC2C=C(C(C)C)[C@@]34C(=O)O)[C@@H](O)C1` the same measures were above 128 µg/mL, 8 µg/mL (≈ 15.9 µM) and 128 µg/mL (≈ 255 µM).
For `C=C(Cl)CN1C[C@@H](C)O[C@@H](OCC23C[C@@H]4[C@H](C)CC[C@H]4C4(C=O)CC2C=C(C(C)C)[C@@]34C(=O)O)[C@@H](O)C1` the same measures were 4 µg/mL (≈ 7.46 µM), 0.5 µg/mL (≈ 0.933 µM) and 32 µg/mL (≈ 59.7 µM).
For `C=C(Cl)CN1CC[C@H](OCC23C[C@@H]4[C@H](C)CC[C@H]4C4(C=O)CC2C=C(C(C)C)[C@@]34C(=O)O)O[C@H](C)C1` the same measures were 1 µg/mL (≈ 1.92 µM), 0.125 µg/mL (≈ 0.24 µM) and 2 µg/mL (≈ 3.85 µM).
Regarding `CC(C)C1=CC2CC3(C=O)[C@@H]4CC[C@@H](C)[C@H]4CC2(CO[C@@H]2O[C@H](C)CN(CC4CC4)C[C@@H]2O)[C@]13C(=O)O`, the MIC in the assay with Cryptococcus neoformans is above 128 µg/mL; in the assay on Candida albicans it was above 16 µg/mL; against Nakaseomyces glabratus it was above 128 µg/mL.
`C=C(C)CN1C[C@@H](C)O[C@@H](OCC23C[C@@H]4[C@H](C)CC[C@H]4C4(C=O)CC2C=C(C(C)C)[C@@]34C(=O)O)[C@@H](O)C1`: the MIC is above 64 µg/mL against Cryptococcus neoformans, 0.125 µg/mL (≈ 0.242 µM) against Candida albicans and 64 µg/mL (≈ 124 µM) in the assay on Nakaseomyces glabratus.
In the same order, the values of `COCCN1C[C@@H](C)O[C@@H](OCC23C[C@@H]4[C@H](C)CC[C@H]4C4(C=O)CC2C=C(C(C)C)[C@@]34C(=O)O)[C@@H](O)C1` are above 128 µg/mL, 16 µg/mL (≈ 30.8 µM) and above 128 µg/mL.
As to `CO[C@H]1[C@@H](O)[C@H](O)[C@H](OC[C@@]23C[C@@H]4[C@H](C)CC[C@H]4[C@@]4(C=O)CC2C=C(C(C)C)[C@@]34C(=O)O)O[C@@H]1C` [SORDARIN], the values for the MIC against Cryptococcus neoformans, in the assay on Candida albicans and against Nakaseomyces glabratus were 8 µg/mL (≈ 16.2 µM), 16 µg/mL (≈ 32.5 µM) and above 128 µg/mL, respectively.
